Experimental findings from ChEMBL document CHEMBL1201862, “PubChem BioAssay data set” (2004) are described below.

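Assay format: 96-well plates, 48-hour exposure. At the GI50, growth is halved.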 Activity calls are given as the source filed them. No stated cut-off is given here; in the data, active = GI50 up to about 1.1 µM and inactive = higher.

Among the test systems are CCRF-CEM; HCT-15; HL-60; IGROV-1; K562; LOX IMVI; MOLT-4; Malme-3M; NCI-H23; NCI-H522; OVCAR-4; OVCAR-5; SF-268; SN12C; SNB-19; SW-620; TK-10; MCF7; MDA-N.
Assay in all cases: NCI tumour cell line growth inhibition, 48 h

With `Cc1nc2ccccc2nc1NS(=O)(=O)c1ccc(N)cc1`, the GI50 is > 100 µM (inactive) in the assay with CCRF-CEM; > 100 µM in the assay with HCT-15; > 100 µM (inactive) in the assay on HL-60; > 100 µM (inactive) in the assay with IGROV-1; > 100 µM (inactive) with K562; > 100 µM (inactive) in the assay on LOX IMVI. The GI50 in the assay with MOLT-4, with Malme-3M, with NCI-H23, with NCI-H522, with OVCAR-4 and with OVCAR-5 was > 100 µM (inactive) throughout. Moreover, the GI50 in the assay on SF-268, in the assay on SN12C, in the assay on SNB-19, with SW-620 and with TK-10 was > 100 µM (inactive) each time.

As to `O=c1[nH]c(=O)n(C2CC(O)C(CO)O2)cc1COCC(F)(F)F` (stereo not given), the GI50 is 86.5 µM (inactive) in the assay on CCRF-CEM; > 100 µM (inactive) with HL-60; > 100 µM (inactive) in the assay on IGROV-1; > 100 µM (inactive) with K562; > 100 µM (inactive) in the assay with LOX IMVI; > 100 µM (inactive) with MOLT-4. In addition, the GI50 in the assay on Malme-3M, with NCI-H23, with NCI-H522, with OVCAR-4, in the assay on OVCAR-5 and in the assay with SF-268 was > 100 µM (inactive) in each case. Further, the GI50 with SN12C, with SNB-19, in the assay with SW-620 and in the assay with TK-10 was > 100 µM (inactive) each time.

For the compound `S=P(N1CCCC1)(N1CC1)N1CC1`, the GI50 was 73.1 µM (inactive) in the assay on CCRF-CEM; > 100 µM in the assay with HCT-15; 56.2 µM (inactive) in the assay on HL-60; > 100 µM (inactive) in the assay on IGROV-1; > 100 µM (inactive) with K562; > 100 µM (inactive) with LOX IMVI. Also, the GI50 is 71.4 µM (inactive) with MOLT-4; > 100 µM (inactive) with Malme-3M; > 100 µM (inactive) in the assay with NCI-H23; 83.9 µM (inactive) with NCI-H522; > 100 µM (inactive) in the assay on OVCAR-4; > 100 µM (inactive) with OVCAR-5. For the same compound, the GI50 in the assay on SF-268 was > 100 µM (inactive); with SN12C, > 100 µM (inactive); in the assay with SNB-19 it was 84.1 µM (inactive); in the assay on SW-620 it was > 100 µM (inactive); in the assay with TK-10, > 100 µM (inactive).

On to `COC(=O)c1c(C(=O)OC)c2ccc(-c3ccc(Cl)cc3)nn2c1C(=O)c1ccc([N+](=O)[O-])cc1`, for which the GI50 is 17.1 µM (inactive) in the assay with CCRF-CEM; 25.2 µM in the assay on HCT-15; < 0.01 µM (active) in the assay with HL-60; 14.2 µM (inactive) in the assay with K562; 39 µM (inactive) with LOX IMVI; 40.2 µM (inactive) in the assay with MCF7. Also, the GI50 with MDA-N is 66.2 µM (inactive); with MOLT-4 it was 15.3 µM (inactive); in the assay with NCI-H23, > 100 µM (inactive); in the assay with NCI-H522, 17.4 µM (inactive); in the assay with OVCAR-4 it was 42.3 µM (inactive); in the assay on OVCAR-5, > 100 µM (inactive). Also, the GI50 was 44.7 µM (inactive) with SF-268; > 100 µM (inactive) with SN12C; > 100 µM (inactive) in the assay with SNB-19; 41.5 µM (inactive) with SW-620; 28.1 µM (inactive) in the assay on TK-10.

On to `NC1=C(N2CCCCC2)C(=O)NC2=N/C(=C\c3ccco3)C(=O)N21`, for which the GI50 in the assay with CCRF-CEM is > 100 µM (inactive); with HCT-15, > 100 µM; in the assay on HL-60, > 100 µM (inactive); with IGROV-1, > 100 µM (inactive); in the assay with K562 it was > 100 µM (inactive); in the assay with LOX IMVI, > 100 µM (inactive). Besides, the GI50 with MDA-N, with MOLT-4, in the assay on Malme-3M, in the assay with NCI-H23, in the assay on NCI-H522 and in the assay on OVCAR-4 was > 100 µM (inactive) each time. Moreover, the GI50 with OVCAR-5, in the assay with SF-268, in the assay on SN12C, in the assay with SNB-19, in the assay on SW-620 and in the assay with TK-10 was > 100 µM (inactive) throughout.

Turning to `C=C1CCC2[C@](C)(CCC[C@]2(C)C(=O)O)[C@@H]1CCc1ccoc1` (stereo not given in full), the GI50 was 40.7 µM (inactive) in the assay with CCRF-CEM; 26.8 µM in the assay on HCT-15; 45.8 µM (inactive) with HL-60; 32.4 µM (inactive) with IGROV-1; 53.5 µM (inactive) in the assay with K562; 16.9 µM (inactive) in the assay with LOX IMVI. The GI50 with MDA-N was 61.8 µM (inactive); in the assay with MOLT-4, 32.5 µM (inactive); with Malme-3M it was 32.2 µM (inactive); in the assay on NCI-H23, 21.4 µM (inactive); in the assay on NCI-H522, 68.5 µM (inactive); in the assay on OVCAR-4, 48.6 µM (inactive). In addition, the GI50 in the assay with OVCAR-5 was 90.6 µM (inactive); in the assay with SF-268, 50.4 µM (inactive); in the assay with SN12C, 33.5 µM (inactive); in the assay on SNB-19, 43.5 µM (inactive); in the assay with SW-620, 53.7 µM (inactive); with TK-10, 24.2 µM (inactive).

On to `Cc1c(C)c(S(=O)(=O)N(CCCCN)OCCCN)c(C)c2c1OC(C)(C)CC2`, for which the GI50 was 16.4 µM (inactive) in the assay on CCRF-CEM; 21.5 µM in the assay with HCT-15; 1 µM (active) with HL-60; 4.51 µM (inactive) in the assay on IGROV-1; 32.4 µM (inactive) with K562; 6.22 µM (inactive) in the assay with LOX IMVI. For the same compound, the GI50 was 26.6 µM (inactive) in the assay on MCF7; 22.8 µM (inactive) in the assay with MDA-N; 19.6 µM (inactive) in the assay with MOLT-4; 16.4 µM (inactive) in the assay with NCI-H23; 13.1 µM (inactive) in the assay on NCI-H522; 13.8 µM (inactive) in the assay with OVCAR-4. Also, the GI50 in the assay on OVCAR-5 was 15.1 µM (inactive); in the assay on SF-268, 15.4 µM (inactive); in the assay with SN12C, 29.6 µM (inactive); with SNB-19, 15.1 µM (inactive); in the assay on SW-620, 31.8 µM (inactive); in the assay with TK-10 it was 14.5 µM (inactive).

For the compound `O=C(CCC(=O)Nc1ccc(Cl)c(Cl)c1)CC(=O)c1ccc(Cl)cc1`, the GI50 in the assay on CCRF-CEM was > 100 µM (inactive); in the assay with HCT-15 it was > 100 µM; in the assay on HL-60 it was > 100 µM (inactive); in the assay with IGROV-1, > 100 µM (inactive); with K562, > 100 µM (inactive); in the assay on LOX IMVI, > 100 µM (inactive). The GI50 in the assay with MOLT-4, in the assay on Malme-3M, in the assay with NCI-H23, with NCI-H522, in the assay with OVCAR-4 and in the assay with OVCAR-5 was > 100 µM (inactive) in each case. The GI50 in the assay with SF-268, in the assay on SN12C, with SNB-19, in the assay on SW-620 and in the assay with TK-10 was > 100 µM (inactive) each time.

Consider `O=C(CC(C(=O)c1ccsc1)c1ccccc1)c1ccccc1` (stereo not given), for which the GI50 in the assay on CCRF-CEM is 69.2 µM (inactive); with HCT-15 it was 83.9 µM; in the assay with HL-60, 0.484 µM (active); in the assay with IGROV-1, > 100 µM (inactive); with K562 it was > 100 µM (inactive); with LOX IMVI, > 100 µM (inactive). Also, the GI50 in the assay with MCF7 is > 100 µM (inactive); in the assay on MDA-N, > 100 µM (inactive); with MOLT-4, > 100 µM (inactive); in the assay on NCI-H23 it was 0.0217 µM (active); with NCI-H522, 34.8 µM (inactive); with OVCAR-4, 6.5 µM (inactive). For the same compound, the GI50 in the assay on OVCAR-5, in the assay on SF-268, in the assay with SN12C, in the assay with SW-620 and with TK-10 was > 100 µM (inactive) in each case.

With `O=C(c1ccc([N+](=O)[O-])cc1[N+](=O)[O-])N(/N=C/C=C/c1ccccc1)c1nnc(-c2ccccc2)c(-c2ccccc2)n1`, the GI50 was 24.5 µM (inactive) in the assay on CCRF-CEM; 29 µM in the assay with HCT-15; 21.6 µM (inactive) in the assay with HL-60; 42.1 µM (inactive) in the assay with IGROV-1; 20.1 µM (inactive) with K562; 35.7 µM (inactive) in the assay with LOX IMVI. Also, the GI50 in the assay with MOLT-4 is 23.6 µM (inactive); in the assay on Malme-3M it was 43.8 µM (inactive); with NCI-H23, 27 µM (inactive); in the assay with NCI-H522, 22 µM (inactive); in the assay with OVCAR-4 it was 20.8 µM (inactive); in the assay on OVCAR-5, > 100 µM (inactive). Further, the GI50 is 40.7 µM (inactive) in the assay on SF-268; 63.7 µM (inactive) in the assay with SN12C; 94.4 µM (inactive) with SNB-19; 44.4 µM (inactive) in the assay on SW-620; 27.2 µM (inactive) with TK-10.

For `N#CC(NNC(=O)c1ccccc1O)c1ccc(O)cc1` (stereo not given), the GI50 in the assay on CCRF-CEM is 4.93 µM (inactive); with HCT-15, 8.63 µM; with HL-60 it was 5.32 µM (inactive); with IGROV-1 it was 3.96 µM (inactive); in the assay with K562, 3.1 µM (inactive); in the assay on LOX IMVI, 5.83 µM (inactive). The GI50 in the assay on MOLT-4 is 4.17 µM (inactive); with Malme-3M it was 29.6 µM (inactive); in the assay on NCI-H23, 8.05 µM (inactive); with NCI-H522, 12.8 µM (inactive); in the assay with OVCAR-4 it was 13.1 µM (inactive); in the assay on OVCAR-5 it was 17.6 µM (inactive). Also, the GI50 in the assay on SF-268 was 1.79 µM (inactive); in the assay on SN12C, 18.6 µM (inactive); in the assay with SW-620, 26.7 µM (inactive); in the assay with TK-10, 39.5 µM (inactive).

As to `O=C(CC(=O)n1nc(-c2ccccc2)c(/N=N/c2ccccc2Cl)c1-c1ccccc1)Nc1ccc(Cl)cc1`, the GI50 with CCRF-CEM is > 44.9 µM (inactive); in the assay on HCT-15, > 43 µM; in the assay with HL-60 it was > 42.8 µM (inactive); in the assay on IGROV-1, > 100 µM (inactive); in the assay with K562, > 53.1 µM (inactive); in the assay on LOX IMVI, > 44.4 µM (inactive). For the same compound, the GI50 in the assay on MOLT-4, in the assay on Malme-3M, in the assay on NCI-H23, with NCI-H522, with OVCAR-4 and with OVCAR-5 was > 100 µM (inactive) in each case. For the same compound, the GI50 in the assay with SF-268 is > 100 µM (inactive); with SN12C, > 100 µM (inactive); in the assay on SNB-19, > 100 µM (inactive); in the assay on SW-620 it was > 48.6 µM (inactive); in the assay on TK-10 it was > 96.2 µM (inactive).
